According to patent publication US7723523B2, “Tetrahydropyridothiophenes” (4SC AG, priority 2004, dated 2010):

Columns and labels:
[1] = system: RKO (RKOp27) human colon adenocarcinoma cells; test: Alamar Blue cell viability assay, anti-proliferative/cytotoxic activity on proliferating RKOp27 cells; type: cell-based; settings: absence of Ponasterone A, 72 hours incubation, read-out: IC50 RKO p27 proliferating
Method: The anti-proliferative/cytotoxic activity of the compounds described herein, can be tested on subclones of RKO (RKOp27) human colon adenocarcinoma cells (Schmidt et al., Oncogene 19, 2423-2429; 2000) using the Alamar Blue cell viability assay (described in O'Brien et al. Eur J Biochem 267, 5421-5426, 2000). The compounds are dissolved as 20 mM solutions in dimethylsulfoxide (DMSO) and subsequently diluted in semi-logarithmic steps. DMSO dilutions are further diluted 1:100 into Dulbecco's modified Eagle's medium (DMEM) containing 10% fetal calf serum to a final concentration twice as much as the final concentration in the test. RKO subclones are seeded into 96 well flat bottom plates at a density of 4000 cells per well in a volume of 50 μl per well. 24 hours after seeding 50 μl each of the compound dilutions in DMEM are added into each well of the 96 well plate. Each compound dilution is tested as quadruplicates. Wells containing untreated control cells are filled with 50 μl DMEM containing 1% DMSO. The cells are then incubated with the substances for 72 hours at 37° C. in a humidified atmosphere containing 5% carbon dioxide. To determine the viability of the cells, 10 μl of an Alamar Blue solution (Biosource) are added and the fluorescence is measured at an extinction of 544 nm and an emission of 590 nm. For the calculation of the cell viability the emission value from untreated cells is set as 100% viability and the emission rates of treated cells are set in relation to the values of untreated cells. Viabilities are expressed as % values.
The corresponding IC50 values of the compounds for anti-proliferative/cytotoxic activity are determined from the concentration-effect curves.
Representative IC50 values for anti-proliferation/cytotoxicity determined in the aforementioned assay are described in the table A (1st column), in which the numbers of the compound correspond to the numbers of the examples.

[2] = system: RKO colon adenocarcinoma cells (RKOp27) arrested by expression of ectopic p27Kip1; test: Alamar Blue cell viability assay on RKOp27 cells arrested by Ponasterone A-induced p27Kip1 (cell cycle specific mode of action); type: cell-based; settings: Homo sapiens, RKOp27, 72 h, cells arrested by p27Kip1 induced with 10 μM Ponasterone A, 72 hours incubation, read-out: IC50 RKO p27 arrested
Method: To determine the cell cycle specific mode of action, subclones of RKO colon adenocarcinoma cells (RKOp27 or RKOp21 as described by Schmidt et al. in Oncogene 19, 2423-2429; 2000) are seeded into 96 well flat bottom plates at a density of 16000 cells per well in a volume of 50 μl per well in DMEM growth medium with 10% FCS containing 10 μM Ponasterone A. 24 hours after seeding 50 μl each of the compound dilutions in DMEM are added into each well of the 96 well plate. Each compound dilution is tested as quadruplicates. Wells containing untreated control cells are filled with 50 μl DMEM containing 1% DMSO. The cells are then incubated with the substances for 72 hours at 37° C. in a humidified atmosphere containing 5% carbon dioxide. To determine the viability of the cells, 10 μl of an Alamar Blue solution (Biosource) are added and the fluorescence is measured at an extinction of 544 nm and an emission of 590 nm. For the calculation of the cell viability the emission value from untreated cells is set as 100% viability and the emission rates of treated cells are set in relation to the values of untreated cells. Viabilities are expressed as % values. Viability is compared of proliferating cells grown in the absence of the inducer Ponasterone A, versus viability of cells arrested by the expression of ectopic p27Kip1 induced by Ponasterone A. The data of this experimental setting are summarized in table A (2nd column).

Compound	IC50 [1] [µM]	IC50 [2] [µM]
CCOC(=O)N1CCc2c(sc(NC(=O)/C=C/c3ccccc3)c2C#N)C1 [Example 1, N-(6-Ethoxycarbonyl-3-cyano-4,5,6,7-tetrahydro-thieno[2,3-c]pyridin-2-yl)-3-phenyl-acrylamide]	< 1	> 100
CC(C)(C)OC(=O)N1CCc2c(sc(NC(=O)/C=C/c3ccccc3)c2C#N)C1 [Example 2, N-(6-tert-Butoxycarbonyl-3-cyano-4,5,6,7-tetrahydro-thieno[2,3-c]pyridin-2-yl)-3-phenyl-acrylamide]	≤ 2	> 100
CCOC(=O)N1CCc2c(sc(NC(=O)/C=C/c3ccccc3Cl)c2C#N)C1 [Example 4, N-(6-Ethoxycarbonyl-3-cyano-4,5,6,7-tetrahydro-thieno[2,3-c]pyridin-2-yl)-3-(2-chlorophenyl)-acrylamide]	≤ 2	> 100
CCOC(=O)N1CCc2c(sc(NC(=O)/C=C/c3cccnc3)c2C#N)C1 [Example 7, N-(6-Ethoxycarbonyl-3-cyano-4,5,6,7-tetrahydro-thieno[2,3-c]pyridin-2-yl)-3-pyridyl-acrylamide]	≤ 2	> 100
CCOC(=O)N1CCc2c(sc(NC(=O)/C=C/c3cccs3)c2C#N)C1 [Example 8, 3-Cyano-2-((E)-3-thiophen-2-yl-allanoylamino)-4,7-dihydro-5H-thieno[2,3-c]pyridine-6-carboxylic acid ethyl ester]	≤ 2	> 100
CCOC(=O)N1CCc2c(sc(NC(=O)/C=C/c3ccsc3)c2C#N)C1 [Example 9, 3-Cyano-2-((E)-3-thiophen-3-yl-allanoylamino)-4,7-dihydro-5H-thieno[2,3-c]pyridine-6-carboxylic acid ethyl ester]	≤ 2	> 100
CCOC(=O)N1CCc2c(sc(NC(=O)/C=C/c3ccco3)c2C#N)C1 [Example 10, 3-Cyano-2-((E)-3-furan-2-yl-allanoylamino)-4,7-dihydro-5H-thieno[2,3-c]pyridine-6-carboxylic acid ethyl ester]	≤ 2	> 100
CCOC(=O)N1CCc2c(sc(NC(=O)/C=C/c3ccoc3)c2C#N)C1 [Example 11, 3-Cyano-2-((E)-3-furan-3-yl-allanoylamino)-4,7-dihydro-5H-thieno[2,3-c]pyridine-6-carboxylic acid ethyl ester]	≤ 2	> 100
CCOC(=O)N1CCc2c(sc(NC(=O)/C=C/c3ccccc3C)c2C#N)C1 [Example 12, 3-Cyano-2-((E)-3-o-tolyl-allanoylamino)-4,7-dihydro-5H-thieno[2,3-c]pyridine-6-carboxylic acid ethyl ester]	≤ 2	> 100
CCOC(=O)N1CCc2c(sc(NC(=O)/C=C/c3cccc(Cl)c3)c2C#N)C1 [Example 13, 2-[(E)-3-(3-Chloro-phenyl)-allanoylamino]-3-cyano-4,7-dihydro-5H-thieno[2,3-c]pyridine-6-carboxylic acid ethyl ester]	≤ 2	> 100
CCOC(=O)N1CCc2c(sc(NC(=O)/C=C/c3cccc(C)c3)c2C#N)C1 [Example 16, 3-Cyano-2-((E)-3-m-tolyl-allanoylamino)-4,7-dihydro-5H-thieno[2,3-c]pyridine-6-carboxylic acid ethyl ester]	≤ 2	> 100
CCOC(=O)N1CCc2c(sc(NC(=O)/C=C/c3cccc(OC)c3)c2C#N)C1 [Example 19, 3-Cyano-2-[(E)-3-(3-methoxy-phenyl)-allanoylamino]-4,7-dihydro-5H-thieno[2,3-c]pyridine-6-carboxylic acid ethyl ester]	≤ 2	> 100
CCOC(=O)N1CCc2c(sc(NC(=O)/C=C/c3cccc(OC)c3OC)c2C#N)C1 [Example 20, 3-Cyano-2-[(E)-3-(2,3-dimethoxy-phenyl)-allanoylamino]-4,7-dihydro-5H-thieno[2,3-c]pyridine-6-carboxylic acid ethyl ester]	≤ 2	> 100
CCOC(=O)N1CCc2c(sc(NC(=O)/C=C/c3cccc(F)c3)c2C#N)C1 [Example 21, 3-Cyano-2-[(E)-3-(3-fluoro-phenyl)-allanoylamino]-4,7-dihydro-5H-thieno[2,3-c]pyridine-6-carboxylic acid ethyl ester]	≤ 2	> 100
CCOC(=O)N1CCc2c(sc(NC(=O)/C=C/c3ccccc3C(F)(F)F)c2C#N)C1 [Example 23, 3-Cyano-2-[(E)-3-(2-trifluoromethyl-phenyl)-allanoylamino]-4,7-dihydro-5H-thieno[2,3-c]pyridine-6-carboxylic acid ethyl ester]	≤ 2	> 100
CCOC(=O)N1CCc2c(sc(NC(=O)/C=C/c3ccccc3OC)c2C#N)C1 [Example 24, 3-Cyano-2-[(E)-3-(2-methoxy-phenyl)-allanoylamino]-4,7-dihydro-5H-thieno[2,3-c]pyridine-6-carboxylic acid ethyl ester]	≤ 2	> 100
CCOC(=O)N1CCc2c(sc(NC(=O)/C=C/c3ccc(N(C)C)cc3)c2C#N)C1 [Example 26, 3-Cyano-2-[(E)-3-(4-dimethylamino-phenyl)-allanoylamino]-4,7-dihydro-5H-thieno[2,3-c]pyridine-6-carboxylic acid ethyl ester]	≤ 2	> 100
CCOC(=O)N1CCc2c(sc(NC(=O)/C=C/c3ccc(C)cc3)c2C#N)C1 [Example 27, 3-Cyano-2-((E)-3-p-tolyl-allanoylamino)-4,7-dihydro-5H-thieno[2,3-c]pyridine-6-carboxylic acid ethyl ester]	≤ 2	> 100
CCOC(=O)N1CCc2c(sc(NC(=O)/C=C/c3ccc(Cl)cc3Cl)c2C#N)C1 [Example 28, 3-Cyano-2-[(E)-3-(2,4-dichloro-phenyl)-allanoylamino]-4,7-dihydro-5H-thieno[2,3-c]pyridine-6-carboxylic acid ethyl ester]	≤ 2	> 100
CCOC(=O)N1CCc2c(sc(NC(=O)/C=C/c3cccc([N+](=O)[O-])c3)c2C#N)C1 [Example 29, 3-Cyano-2-[(E)-3-(3-nitro-phenyl)-allanoylamino]-4,7-dihydro-5H-thieno[2,3-c]pyridine-6-carboxylic acid ethyl ester]	≤ 2	> 100
CCOC(=O)N1CCc2c(sc(NC(=O)/C=C/c3ccc4c(c3)OCO4)c2C#N)C1 [Example 30, 2-((E)-3-Benzo[1,3]dioxol-5-yl-allanoylamino)-3-cyano-4,7-dihydro-5H-thieno[2,3-c]pyridine-6-carboxylic acid ethyl ester]	≤ 2	> 100
CC(C)(C)OC(=O)N1CCc2c(sc(NC(=O)/C=C/c3cccnc3)c2C#N)C1 [Example 32, 3-Cyano-2-((E)-3-pyridin-3-yl-allanoylamino)-4,7-dihydro-5H-thieno[2,3-c]pyridine-6-carboxylic acid tert-butyl ester]	≤ 2	> 100
CCCC(=O)N1CCc2c(sc(NC(=O)/C=C/c3ccccc3)c2C#N)C1 [Example 33, (E)-N-(6-Butyryl-3-cyano-4,5,6,7-tetrahydro-thieno[2,3-c]pyridin-2-yl)-3-phenyl-acrylamide]	≤ 2	> 100
CC(=O)N1CCc2c(sc(NC(=O)/C=C/c3ccccc3)c2C#N)C1 [Example 34, (E)-N-(6-Acetyl-3-cyano-4,5,6,7-tetrahydro-thieno[2,3-c]pyridin-2-yl)-3-phenyl-acrylamide]	≤ 2	> 100
CCSC(=O)N1CCc2c(sc(NC(=O)/C=C/c3ccccc3)c2C#N)C1 [Example 35, 3-Cyano-2-((E)-3-phenyl-allanoylamino)-4,7-dihydro-5H-thieno[2,3-c]pyridine-6-carbothioic acid S-ethyl ester]	≤ 2	> 100
